Experimental data: patent publication USRE46511E1, “Fused pyrimidine derivatives for inhibition of tyrosine kinase activity” (HANMI SCIENCE CO., LTD., priority 2010, dated 2017)

Experiments:
[1] = system: HCC827 (EGFR DelE746_A750); test: Inhibition test for growth of cancer cell expressing EGFR (SRB), HCC827; type: cell-based; conditions: Homo sapiens, HCC827, 72 h, HCC827 cells, 72 hours, SRB; read-out: GI50 HCC827 EGFR DelE746_A750;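 note: cells in 96-well plates exposed to tenfold serial dilutions from 100 µM, fixed with trichloroacetic acid, SRB-stained, absorbance read at 540 nm, DMSO under 1%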
[2] = system: NCI-H1975 (EGFR L858R/T790M); test: Inhibition test for growth of cancer cell expressing EGFR (MTS), NCI-H1975; type: cell-based; conditions: Homo sapiens; NCI-H1975 cells, 48 hours, MTS; read-out: GI50 NCI-H1975 EGFR L858R/T790M
[3] = system: A431 (EGFR WT); test: Inhibition test for growth of cancer cell expressing EGFR (SRB), A431; type: cell-based; conditions: Homo sapiens, A-431; A431 cells, 72 hours, SRB; read-out: GI50 A431 EGFR WT;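 note: cells in 96-well plates exposed to tenfold serial dilutions from 100 µM down to 10^−6 µM, DMSO under 1%, SRB staining read as absorbance at 540 nm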
Protocol: A431 cell line was incubated in a high-glucose DMEM (Dulbecco's Modified Eagle's Medium) supplemented with 10% fetal bovine serum (FBS) and 1% penicillin/streptomycin (Gibco BRL), and HCC827 and NCI-H1975 cell lines were incubated in an RPMI medium supplemented with 10% FBS, 1% penicillin/streptomycin and 1% sodium pyruvate.
The cancer cell lines stored in a liquid nitrogen tank were each quickly thawed at 37° C., and centrifuged to remove the medium. The resulting cell pellet was mixed with a culture medium, incubated in a culture flask at 37° C. under 5% CO2 for 2 to 3 days, and the medium was removed. The remaining cells were washed with DPBS (Dulbecco's Phosphate Buffered Saline) and separated from the flask by using Tripsin-EDTA. […] 100 μl of the diluted cell solution was added to each well of a 96-well plate, and incubated at 37° C. under 5% CO2 for 1 day.
In case that the test compound was not soluble in DMSO, 1% HCl was added thereto and treated in a 40° C. water bath for 30 mins until a complete dissolution was attained. The DMSO solution containing test compound was diluted with a culture medium to a final concentration of 100 μM, and then diluted 10 times serially to 10^−6 μM (a final concentration of DMSO was less than 1%).
The medium was removed from each well of the 96-well plate. And then, 100 μl of a test compound solution was added to each well holding the cultured cells, and the plate was incubated at 37° C. under 5% CO2 for 72 hours (except that NCI-H1975 cells were incubated for 48 hours). After removing the medium from the plate, 50 μA of 10% trichloroacetic acid was added to each well, and the plate was kept at 4° C. for 1 hour to fix the cells to the bottom of the plate. The added 10% trichloroacetic acid solution was removed from each well, the plate was dried, 100 μA of an SRB (Sulforhodamine-B) dye solution at a concentration of 0.4% dissolved in 1% acetic acid was added thereto, and the resulting mixture was reacted for 10 mins at room temperature. After removing the dye solution, the plate was washed with water, and well dried. When the dye solution was not effectively removed by water, 1% acetic acid was used. 150 μA of 10 mM trisma base was added to each well, and the absorbance at 540 nm wavelength was determined with a microplate reader.

[4] = target: T1, BTK (Homo sapiens, UniProt Q06187); test: z-lyte kinase assay, BTK; type: biochemical
T1 construct: purchased Invitrogen
Protocol: (§1) The inhibiting activities of the inventive compounds obtained in Examples 1 to 237 against EGFR WT and EGFR L858R/T790M kinase were determined using z-lyte kinase assay kit (Invitrogen, PV3191). The kinases used in the test were purchased from Invitrogen.
(§2) The compounds obtained in Examples 1 to 237 were each prepared to 10 mM DMSO solution, and a solution containing 4% DMSO were prepared therefrom and diluted to a concentration of 1 μM to 0.0001 μM. […] The test was conducted in a 384 well polystyrene flat-bottomed plates. 5 μl of the diluted solution of each compound was added to each well, and 10 μl of a mixture of peptide substrate and kinase in a suitable concentration and 5 μl of 5˜300 μM ATP solution were successively added thereto and the plate was incubated in a stirrer at room temperature for 60 minutes. After 60 mins, 10 μl of coloring reagent was added to the resulting mixture to initiate a fluorescence reaction of peptide substrate and a terminating solution was added thereto for terminating the reaction. A fluorescence value of each well was determined with a fluorescence meter (Molecular Device) at 400 nm (excitation filter) and 520 nm (emission filter). […] The calculation of IC50 and the result analysis were carried out by using Microsoft Excel.
(§3) The inhibiting activities of the inventive compounds obtained in Examples 1 to 237 against BTK and JAK3 kinases were determined, respectively. The procedure of Test Example 2 was repeated except that BTK and JAK3 kinases (Invitrogen) were employed instead of using the EGFR kinase.

[5] = target: T2, JAK3 (Homo sapiens, UniProt P52333); test: z-lyte kinase assay, JAK3; type: biochemical
T2 construct: purchased Invitrogen
T2 sequence (P52333 1-1124): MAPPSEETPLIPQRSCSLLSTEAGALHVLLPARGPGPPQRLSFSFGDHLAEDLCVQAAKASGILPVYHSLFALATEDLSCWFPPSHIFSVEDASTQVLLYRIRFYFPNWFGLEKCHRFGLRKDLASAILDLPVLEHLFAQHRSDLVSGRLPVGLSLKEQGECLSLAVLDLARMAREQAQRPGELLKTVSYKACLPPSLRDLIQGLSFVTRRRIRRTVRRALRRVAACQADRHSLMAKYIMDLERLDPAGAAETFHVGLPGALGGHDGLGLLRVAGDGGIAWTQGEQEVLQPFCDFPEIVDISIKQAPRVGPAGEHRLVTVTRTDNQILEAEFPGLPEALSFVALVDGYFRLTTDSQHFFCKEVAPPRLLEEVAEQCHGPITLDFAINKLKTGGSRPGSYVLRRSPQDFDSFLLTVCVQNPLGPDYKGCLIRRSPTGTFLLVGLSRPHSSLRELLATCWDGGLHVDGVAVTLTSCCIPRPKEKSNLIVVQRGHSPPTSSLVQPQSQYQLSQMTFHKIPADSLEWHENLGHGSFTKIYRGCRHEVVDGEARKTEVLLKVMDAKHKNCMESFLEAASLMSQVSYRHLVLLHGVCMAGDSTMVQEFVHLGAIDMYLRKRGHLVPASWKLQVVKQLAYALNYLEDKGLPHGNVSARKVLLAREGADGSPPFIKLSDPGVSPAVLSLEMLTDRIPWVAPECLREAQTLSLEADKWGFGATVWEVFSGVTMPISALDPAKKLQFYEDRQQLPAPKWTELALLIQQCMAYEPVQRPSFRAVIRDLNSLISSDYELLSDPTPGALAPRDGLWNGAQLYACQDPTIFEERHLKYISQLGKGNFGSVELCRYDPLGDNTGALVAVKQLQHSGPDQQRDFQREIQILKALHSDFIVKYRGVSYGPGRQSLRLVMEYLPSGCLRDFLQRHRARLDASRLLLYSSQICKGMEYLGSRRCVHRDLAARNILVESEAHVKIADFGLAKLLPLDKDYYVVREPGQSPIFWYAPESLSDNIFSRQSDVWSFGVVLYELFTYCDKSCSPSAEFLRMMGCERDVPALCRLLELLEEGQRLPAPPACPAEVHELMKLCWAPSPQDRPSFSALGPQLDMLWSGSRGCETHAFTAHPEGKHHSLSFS
Protocol: as §1, §2, §3

T1 sequence (Q06187 whole entry): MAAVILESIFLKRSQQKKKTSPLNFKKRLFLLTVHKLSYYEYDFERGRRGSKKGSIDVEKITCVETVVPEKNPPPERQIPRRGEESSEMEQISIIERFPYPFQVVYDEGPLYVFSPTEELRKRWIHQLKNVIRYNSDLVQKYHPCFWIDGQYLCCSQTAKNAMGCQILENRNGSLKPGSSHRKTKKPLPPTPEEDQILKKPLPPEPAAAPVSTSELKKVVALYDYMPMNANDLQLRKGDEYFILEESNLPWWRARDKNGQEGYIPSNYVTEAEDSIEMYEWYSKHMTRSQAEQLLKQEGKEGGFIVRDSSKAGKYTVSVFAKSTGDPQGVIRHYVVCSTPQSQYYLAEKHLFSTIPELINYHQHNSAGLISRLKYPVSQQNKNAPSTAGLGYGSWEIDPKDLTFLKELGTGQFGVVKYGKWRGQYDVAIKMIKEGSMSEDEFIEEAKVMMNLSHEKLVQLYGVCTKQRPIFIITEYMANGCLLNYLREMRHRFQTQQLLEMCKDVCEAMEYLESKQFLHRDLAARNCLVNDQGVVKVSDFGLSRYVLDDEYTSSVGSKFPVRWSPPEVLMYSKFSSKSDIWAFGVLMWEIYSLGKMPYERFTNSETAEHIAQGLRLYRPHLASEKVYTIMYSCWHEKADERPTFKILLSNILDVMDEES

SMILES	GI50 [1] [nM]	GI50 [2] [nM]	GI50 [3] [nM]	IC50 [4] [nM]	IC50 [5] [nM]
C=CC(=O)Nc1cccc(Oc2nc(Nc3ccc(C(=O)NC4CCN(C)CC4)cc3)nc3ccsc23)c1 [Example 82]	< 50	< 50	> 1000	≤ 50	≤ 50
C=CC(=O)Nc1cccc(Oc2nc(Nc3ccc(NCCN(C)C)c(F)c3)nc3ccsc23)c1 [Example 199]	< 50	< 50	> 1000	≤ 50	≤ 50
C=CC(=O)Nc1cccc(Oc2nc(Nc3ccc(N4CCN(C(C)C)CC4)cc3)nc3ccsc23)c1 [Example 11]	< 50	< 50	100 to 1000	≤ 50	≤ 50
C=CC(=O)Nc1cccc(Oc2nc(Nc3ccc(OCCN(C)C)cc3)nc3ccsc23)c1 [Example 62]	< 50	< 50	> 1000	≤ 50	≤ 50
C=CC(=O)Nc1cccc(Oc2nc(Nc3ccc(N4CCC(CN5CCCCC5)CC4)cc3)nc3ccsc23)c1 [Example 42]	< 50	< 50	> 1000	≤ 50	50 to 100
C=CC(=O)Nc1cccc(Oc2nc(Nc3ccc(NC4CCN(C)CC4)c(F)c3)nc3ccoc23)c1 [Example 237]	< 50	< 50	> 1000	≤ 50	≤ 50
C=CC(=O)Nc1cccc(Oc2nc(Nc3ccc(N4CCC(N5CCCCC5)CC4)c(F)c3)nc3ccsc23)c1 [Example 125]	< 50	< 50	> 1000	≤ 50	≤ 50
C=CC(=O)Nc1cccc(Oc2nc(Nc3ccc(C(=O)NC4CCN(C)CC4)c(Cl)c3)nc3ccsc23)c1 [Example 142]	< 50	< 50	> 1000	≤ 50	≤ 50
C=CC(=O)Nc1cccc(Oc2nc(Nc3ccc(CN(C)C)cc3)nc3ccsc23)c1 [Example 173]	< 50	< 50	100 to 1000	≤ 50	≤ 50
C=CC(=O)Nc1cccc(Oc2nc(Nc3ccc(C4CCN(CC)CC4)cc3)nc3ccsc23)c1 [Example 53]	< 50	< 50	> 1000	≤ 50	≤ 50
C=CC(=O)Nc1cccc(Oc2nc(Nc3ccc(C4=CCN(C)CC4)cc3)nc3ccsc23)c1 [Example 51]	< 50	< 50	> 1000	≤ 50	50 to 100
C=CC(=O)Nc1cccc(Oc2nc(Nc3ccc(CN4CCOCC4)cc3)nc3ccsc23)c1 [Example 187]	50 to 100	< 50	> 1000	50 to 100	50 to 100
C=CC(=O)Nc1cccc(Oc2nc(Nc3ccc(CN4CCN(C)CC4)cc3)nc3ccsc23)c1 [Example 182]	< 50	< 50	> 1000	≤ 50	50 to 100
C=CC(=O)Nc1cccc(Oc2nc(Nc3ccc(CN4CCC(N(C)C)CC4)cc3)nc3ccsc23)c1 [Example 180]	< 50	< 50	> 1000	≤ 50	≤ 50
C=CC(=O)Nc1cccc(Oc2nc(Nc3ccc(NC4CCN(C)CC4)c(F)c3)nc3ccsc23)c1 [Example 129]	< 50	< 50	> 1000	≤ 50	≤ 50
C=CC(=O)Nc1ccc(F)c(Nc2nc(Nc3ccc(N4CCN(C)CC4)c(F)c3)nc3ccsc23)c1 [Example 219, N-(4-fluoro-3-(2-(3-fluoro-4-(4-methyl-piperazin-1-yl)-phenylamino)-thieno[3,2-d]pyrimidin-4-ylamino)-phenyl)-acrylamide]	< 50	< 50	> 1000	≤ 50	≤ 50
C=CC(=O)Nc1cccc(Oc2nc(Nc3ccc(CN4CCN(CC)CC4)cc3)nc3ccsc23)c1 [Example 183]	< 50	< 50	> 1000	50 to 100	50 to 100
C=CC(=O)Nc1cccc(Oc2nc(Nc3ccc(N4CCN(C)CC4)cc3)nc3ccoc23)c1 [Example 228, N-(3-((2-((4-(4-methylpiperazin-1-yl)phenyl)amino)furo[3,2-d]pyrimidin-4-yl)oxy)phenyl)acrylamide]	< 50	< 50	100 to 1000	≤ 50	≤ 50
C=CC(=O)Nc1cccc(Oc2nc(Nc3ccc(N4CCN(C)CC4)c(F)c3)nc3ccsc23)c1 [Example 3]	< 50	< 50	> 1000	≤ 50	50 to 100
C=CC(=O)Nc1cccc(Sc2nc(Nc3ccc(N4CCN(C)CC4)cc3)nc3ccsc23)c1 [Example 223, N-(3-(2-(4-(4-methylpiperazin-1-yl)phenylamino)thieno[3,2-d]pyrimidin-4-ylthio)phenyl)acrylamide]	< 50	< 50	> 1000	≤ 50	≤ 50
C=CC(=O)Nc1cccc(Oc2nc(Nc3ccc(C(=O)N4CCN(CC)CC4)c(Cl)c3)nc3ccsc23)c1 [Example 203]	< 50	< 50	> 1000	≤ 50	50 to 100
C=CC(=O)Nc1cccc(Oc2nc(Nc3ccc(C(=O)NC4CCN(C(C)C)CC4)cc3)nc3ccsc23)c1 [Example 83]	< 50	< 50	100 to 1000	≤ 50	≤ 50
C=CC(=O)Nc1cccc(Oc2nc(Nc3ccc(N4CCC(N5CCN(CC)CC5)CC4)cc3)nc3ccsc23)c1 [Example 50]	< 50	100 to 1000	> 1000	≤ 50	50 to 100
C=CC(=O)Nc1cccc(Oc2nc(Nc3ccc(N4CC5CC4CN5C)cc3)nc3ccsc23)c1 (stereo not drawn) [Example 28]	50 to 100	< 50	–	≤ 50	≤ 50
C=CC(=O)Nc1cccc(Oc2nc(Nc3ccc(CN4CCC(N5CCOCC5)CC4)cc3)nc3ccsc23)c1 [Example 181]	< 50	< 50	> 1000	≤ 50	≤ 50
C=CC(=O)Nc1cccc(Oc2nc(Nc3ccc(N4CCN(C5CCN(C)CC5)CC4)nc3)nc3ccsc23)c1 [Example 148]	< 50	< 50	–	≤ 50	50 to 100
C=CC(=O)Nc1cccc(Oc2nc(Nc3ccc(N4CCC(CN(C)C)CC4)cc3)nc3ccsc23)c1 [Example 41]	< 50	< 50	–	50 to 100	50 to 100
